Where a name gives a salt, the structure may show the parent alone.
Key:
[1] = tested on: pancreatitis induced by choline-deficient ethionine supplemented diet; assay: Inhibitory activity against pancreatitis induced by choline-deficient ethionine supplemented diet (CDE diet); serum amylase activity as index of pancreatitis; type: in vivo, ICR female mouse; conditions: serum 64 h after start of CDE diet, twice a day, 6 times in total
Protocol: Pancreatitis of a mouse was induced by choline-deficient ethionine supplemented diet (CDE diet). A modified method of Lombardi et al [Lombardi et al, Am. J. Pathol., 79, 465-480 (1975)] was carried out. Briefly, the pancreatitis was induced by feeding an ICR female mouse (Charles River Japan, Inc. three-weeks old) choline deficient diet to which 0.5% (w/w) DL-ethionine was added (CDE diet). Sixty four hours after the feeding with the CDE diet, approximately 0.3 ml of the blood was collected from the heart of the mouse under anesthesia with ether. The collected blood was allowed to stand at room temperature for 2 hours to coagulate, followed by centrifugation (at 12,000 rpm for 10 minutes), to obtain serum. The amylase activity in the serum was measured by an amylase activity assay kit (Amylase B-Test Wako, product of Wako Pure Chemical Industries, Ltd.) and was designated as an index of pancreatitis. The test compound suspended in a 0.5% (w/v) tragacanth solution was administered to mice one hour before the feeding of the CDE diet and was administered twice a day, 6 times in total. The control group was fed with the CDE diet to induce pancreatitis but the test compounds were not administered to the control group. The normal group was not fed with the CDE diet but was fed with ordinary food.

[2] = tested on: cerulein-induced pancreatitis; assay: Inhibitory activity against cerulein-induced pancreatitis; serum amylase activity as index of pancreatitis; type: in vivo, Wistar rats; conditions: Table 6, serum 3 h after final cerulein (20 µg/kg i.p., four times), control group 48.7
Protocol: Induction of experimental acute pancreatitis in rats was carried out by a modified method of Otsuki et al [Otsuki et al, Dig. Dis. Sci., 35, 242-250 (1990)]. Briefly, cerulein (20 µg/kg) was intraperitoneally administered to Wistar rats (Japan SLC, weight: about 200 g) every one hour, four times in total. Three hours after the final administration, the blood was collected from the jugular vein of the rat under anesthesia with ether. The collected blood was allowed to stand at room temperature for 2 hours to coagulate, followed by centrifugation (at 12,000 rpm for 10 minutes), to obtain serum. The amylase activity of the serum was measured using an amylase activity assay kit (Amylase B-Test Wako, product of Wako Pure Chemical Industries, Ltd.) and was designated as an index of pancreatitis. The test compound suspended in a 0.5% (w/v) tragacanth solution was orally administered 30 minutes before the first injection of the cerulein. The control group is defined as a group in which pancreatitis was induced, but to which the test compounds were not administered.

[3] = Table 4, dose 10 mg/kg, control group 64.7, normal group 6.6
[4] = Table 4, dose 30 mg/kg, control group 64.7, normal group 6.6

SMILES: COc1cc(CCc2cc(F)ccc2OCC[C@@H]2C[C@@H](O)CN2C)ccc1F [Preparation Example 2, (2R,4R)-2-[2-[4-Fluoro-2-[2-(4-fluoro-3-methoxypheny)ethyl]phenoxy]ethyl]-4-hydroxy-1-methylpyrrolidine hydrochloride]
- Amylase activity [1, 3]: 53.7 IU/ml
- Amylase activity [1, 4]: 31.2 IU/ml

SMILES: CCCCCCCCCCCC(=O)O[C@@H]1C[C@@H](CCOc2ccccc2CCc2cccc(OC)c2)N(C)C1.Cl [Preparation Example 3, (2R,4R)-4-Lauroyloxy-2-[2-[2-[2-(3-methoxyphenyl)ethyl]phenoxy]ethyl]-1-methylpyrrolidine hydrochloride]
- Amylase activity ([1]; Table 3, dose 10 mg/kg, control group 71.7, normal group 7.4): 35.0 IU/ml
- Amylase activity ([1]; Table 3, dose 30 mg/kg, control group 71.7, normal group 7.4): 32.1 IU/ml
- Amylase activity ([2]; dose 10 mg/kg orally 30 minutes before first cerulein): 43.6 IU/ml
- Amylase activity ([2]; dose 30 mg/kg orally 30 minutes before first cerulein): 34.9 IU/ml
- Amylase activity ([2]; dose 100 mg/kg orally 30 minutes before first cerulein): 31.7 IU/ml

SMILES: COc1cc(CCc2ccccc2OCC[C@@H]2C[C@@H](O)CN2C)ccc1F.Cl [Preparation Example 4, (2R,4R)-2-[2-[2-[2-(4-Fluoro-3-methoxyphenyl)ethyl]phenoxy]ethyl]-4-hydroxy-1-methylpyrrolidine hydrochloride]
- Amylase activity [1, 3]: 48.4 IU/ml
- Amylase activity [1, 4]: 30.5 IU/ml

SMILES: COc1cccc(CCc2ccccc2OCC[C@@H]2C[C@@H](O)CN2C)c1.Cl [Preparation Example 18, (2R,4R)-4-Hydroxy-2-[2-[2-[2-(3-methoxyphenyl)ethyl]phenoxy]ethyl]-1-methylpyrrolidine hydrochloride]
- Amylase activity ([1]; Table 5, dose 10 mg/kg, control group 48.0, normal group 8.7): 25.7 IU/ml
- Amylase activity ([1]; Table 5, dose 30 mg/kg, control group 48.0, normal group 8.7): 21.8 IU/ml
